The text below walks through data of patent US6136781A, “LH-RH receptor antagonists” (Takeda Chemical Industries, Ltd., priority 1995, dated 2000).

Square brackets hold non-standard residues; d marks the D form. Peptide text beside a SMILES is read from it. * marks the point of attachment. Naphthalene1sulfonyl = O=S(=O)(c1cccc2ccccc12)*; Gly(2-thienyl) = N[C@H](C(=O)O)c1cccs1; Hexanoyl(6-Ph) = O=C(CCCCCc1ccccc1)*; Mtr = COc1cc(C)c(S(=O)(=O)*)c(C)c1C; Butanoyl(4-Ph) = O=C(CCCc1ccccc1)*; 1Naphthoyl = O=C(c1cccc2ccccc12)*; NHPhenethyl = c1ccc(CCN*)cc1; Phg = N[C@H](C(=O)O)c1ccccc1; Tos = Cc1ccc(S(=O)(=O)*)cc1; Bz = O=C(c1ccccc1)*

Test system in the first data set: not given
Assay: not given
Particulars: amide bond; 15-membered ring; PyBOP/DIEA; DMF; 25.0 °C; 2 steps.
Molecule cyclo(-Phe-D-Arg(Tos)-Phe-D-Trp-Trp-) yielded a ring closure, isolated yield of 83%. Still for that read-out and setting: then cyclo(-Phe-D-Arg(Tos)-Phe-D-Phe-Trp-), with 70.6%.

Test system in another data set: not given
Assay: not given
Particulars: amide bond; 15-membered ring; DIEA (active ester); DMF; 2.67 mM; 5 steps.
For the molecule “cyclo(-Arg-D-Glu(NHCH2 CH2 Ph)-Asp (NHCH2 Ph)-D-Trp-Leu-)”, the ring closure, yield after HPLC came out at 6.72%.

Staying with this data set, now noted: amide bond; 15-membered ring; HONB/DCC preactivation; DIEA; DMF; 0.94 mM; 5 steps.
cyclo(-Arg-D-Lys-Tyr-D-Trp-Leu-) showed a ring closure, yield after HPLC of 11.7%.

Still in this data set, the particulars now being: from H-Phe-Phg-dArg(Tos)-Phe-dAla-OH; amide bond; 15-membered ring; PyBOP/DIEA; DMF; 25.0 °C; 2 steps.
In the case of `Cc1ccc(S(=O)(=O)NC(=N)NCCC[C@H]2NC(=O)[C@H](c3ccccc3)NC(=O)[C@H](Cc3ccccc3)NC(=O)[C@@H](C)NC(=O)[C@H](Cc3ccccc3)NC2=O)cc1` [cyclo(-Phg-D-Arg(Tos)-Phe-D-Ala-Phe-)], the ring closure, yield after HPLC is 13.1%.

The same data set, now with this note: from H-Trp-pClPhe-dArg(Tos)-Phe-dAla-OH; amide bond; 15-membered ring; PyBOP/DIEA; DMF; 25.0 °C; 2 steps.
As to `Cc1ccc(S(=O)(=O)NC(=N)NCCC[C@H]2NC(=O)[C@H](Cc3ccc(Cl)cc3)NC(=O)[C@H](Cc3c[nH]c4ccccc34)NC(=O)[C@@H](C)NC(=O)[C@H](Cc3ccccc3)NC2=O)cc1` [cyclo(-pClPhe-D-Arg(Tos)-Phe-D-Ala-Trp-)], the ring closure, yield after HPLC was found to be 7.5%.

Test system in a further data set: not given
Assay: not given
Particulars: amide bond; 15-membered ring; DIEA/AcOH; DMF; resin; with chain assembly.
Turning to “cyclo(-pClPhe-Arg(Tos)-Nal(2)-D-Ala-Trp-)”, the ring closure, crude yield was determined as 59.1%.

Turning to “cyclo(-pClPhe-D-Arg(Tos)-Nal(2)-D-Ala-Trp-)”, the ring closure, crude yield was found to be 92.8%.

The same data set, now with this note: amide bond; 15-membered ring; ONB active ester; 4 steps.
In the case of “Cyclo(-Arg(Tos)-D-Glu(NHCH2 CH2 Ph)-Lys(Cl-Z)-D-Trp-Leu-)”, the ring closure, crude yield was 72.3%.

The next data set addresses T1, Human LH-RH Receptor (Homo sapiens, UniProt P30968).
T1 construct: expressed in transfected cells; host or cells: CHO cells (Chinese hamster ovary), membrane fraction
T1 sequence (P30968 1-328): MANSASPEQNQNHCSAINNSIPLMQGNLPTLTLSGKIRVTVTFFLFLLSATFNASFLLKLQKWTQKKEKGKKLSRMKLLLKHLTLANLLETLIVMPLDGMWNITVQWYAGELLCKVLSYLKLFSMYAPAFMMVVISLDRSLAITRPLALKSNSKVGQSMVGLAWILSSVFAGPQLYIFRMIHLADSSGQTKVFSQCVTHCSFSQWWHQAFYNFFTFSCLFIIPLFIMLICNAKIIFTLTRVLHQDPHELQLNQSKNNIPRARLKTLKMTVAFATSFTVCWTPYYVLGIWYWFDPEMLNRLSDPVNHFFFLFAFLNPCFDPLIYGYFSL
Kind of data set: Inhibition of bonding of 125I-leuprorelin to human LH-RH receptor (receptor assay). The data set is classed as binding. To be noted: human LH-RH receptor-expressing CHO cell membrane fraction, 25° C. for 60 minutes, Hill plotting. As to the method: Human LH-RH receptor-expressing CHO cells (10^9 cells) were floated in a phosphate buffer saline containing 5 mM EDTA (PBS-EDTA) and subjected to centrifugation at 100×g for 5 minutes. 10 ml of a cell homogenate buffer (10 mM NaHCO3, 5 mM EDTA, pH 7.5) was added to the resulting cell pellets, and the resulting mixture was then homogenized in a polytron homogenizer. This was thereafter centrifuged at 400×g for 15 minutes, and the resulting supernatant was collected in an ultra-centrifuger and again centrifuged at 100,000×g for 1 hour to obtain a precipitate of the cell membrane fraction. This precipitate was suspended in 2 ml of an assay buffer and centrifuged at 100,000×g for 1 hour. The cell membrane fraction thus collected as a precipitate was again suspended in 20 ml of an assay buffer, put into plural vials and stored at -80° C. These were individually thawed before use.
Determination of Percentage of Inhibition of Bonding of ^125 I-Leuprorelin to Human LH-RH Receptor
The human LH-RH receptor-expressing CHO cell membrane fraction as prepared in Reference Example 2 was diluted with an assay buffer to have a concentration of 200 μg/ml and put into plural tubes at 188 μl/tube. Where the human LH-RH receptor-expressing CHO cell membrane fraction was used, 2 μl of a solution of the test compound (2 mM) as dissolved in 60%-DMSO and 10 μl of ^125 I-leuprorelin (38 nM) were added to the dilution of the fraction. In order to measure the maximum amount of the ^125 I-leuprorelin as bonded to the receptor, a reaction system comprising 2 μl of 60%-DMSO and 10 μl of ^125 -leuprorelin (38 nM) was prepared. In order to measure the amount of ^125 I-leuprorelinas non-specifically bonded to the receptor, a reaction system comprising 2 μl of leuprorelin (100 μM) as dissolved in 60%-DMSO and 10 μl of ^125 I-leuprorelin (38 nM) was prepared.
Each system of the present invention comprising the human LH-RH receptor-expressing CHO cell membrane fraction was reacted at 25° C. for 60 minutes. After the reaction, the reaction mixture was filtered under suction through a polyethyleneimine-treated Wattman glass filter (GF-F). After the filtration, the radioactivity of ^125 I-leuprorelin in the residue remained on the filter paper was measured using a g-counter.
From the data measured, a value of [(TB-SB)/(TB-NSB)]×100 (where SB is the radioactivity of the test system to which the test compound had been added; TB is the radioactivity of the maximum bonding system; and NSB is the radioactivity of the non-specific bonding system) was calculated, which indicates the bonding-inhibition percentage (%) of the compound tested. […] The results obtained are shown in [Table 1].
One may read the IC50 as the point on the concentration scale where inhibition reaches its midpoint. A lower IC50 goes with inhibition by little substance. Turning to `CC(C)C[C@@H]1NC(=O)[C@@H](Cc2c[nH]c3ccccc23)NC(=O)[C@H](Cc2ccc(O)cc2)NC(=O)[C@@H](CCCCNS(=O)(=O)c2cccc3ccccc23)NC(=O)[C@H](CCCNC(=N)N)NC1=O` [Example 1, cyclo(-Arg-D-Lys(SO2 Nap(1))-Tyr-D-Trp-Leu-)] (cyclo(LR[dK](Naphthalene1sulfonyl)Y[dW])), the IC50 was found to be 0.9 µM.

`Cc1ccc(S(=O)(=O)NC(=N)NCCC[C@H]2NC(=O)[C@H](Cc3ccccc3)NC(=O)[C@H](Cc3c[nH]c4ccccc34)NC(=O)[C@@H](C)NC(=O)[C@H](Cc3ccccc3)NC2=O)cc1` [Example 37, cyclo(-Phe-D-Arg(Tos)-Phe-D-Ala-Trp-)] (cyclo(F[dA]WF[dR](Tos))): the IC50 is 0.3 µM. `Cc1ccc(S(=O)(=O)NC(=N)NCCC[C@H]2NC(=O)[C@H](C)NC(=O)[C@H](Cc3c[nH]c4ccccc34)NC(=O)[C@@H](C)NC(=O)[C@H](Cc3ccccc3)NC2=O)cc1` [Example 51, cyclo(-Ala-D-Arg(Tos)-Phe-D-Ala-Trp-)] (cyclo(A[dR](Tos)F[dA]W)) came in with an IC50 of 0.2 µM. Same read-out and setting: then `CC(C)C[C@@H]1NC(=O)[C@@H](Cc2c[nH]c3ccccc23)NC(=O)[C@H](CCCNC(=N)N)NC(=O)[C@@H](Cc2ccc(O)cc2)NC(=O)[C@@H](CCCCNS(=O)(=O)c2cccc3ccccc23)NC1=O` [Example 23, cyclo(-D-Tyr-Arg-D-Trp-Leu-D-Lys(SO2 Nap(1))-)] (cyclo(L[dK](Naphthalene1sulfonyl)[dY]R[dW])), with 0.9 µM. Still for that read-out and setting: then `Cc1ccc(S(=O)(=O)NC(=N)NCCC[C@H]2NC(=O)[C@H](c3ccccc3)NC(=O)[C@H](Cc3ccccc3)NC(=O)[C@@H](C)NC(=O)[C@H](Cc3ccccc3)NC2=O)cc1` [Example 53, cyclo(-Phg-D-Arg(Tos)-Phe-D-Ala-Phe-)] (cyclo(F[Phg][dR](Tos)F[dA])), with 0.1 µM; and `C[C@H]1NC(=O)[C@H](Cc2ccccc2)NC(=O)[C@H](CCCNC(=N)N)NC(=O)[C@H](Cc2ccccc2)NC(=O)[C@H](Cc2c[nH]c3ccccc23)NC1=O` [Example 43, cyclo(-Phe-Arg-Phe-D-Ala-Trp-)] (cyclo(FRF[dA]W)), with 1 µM; and `COc1cc(C)c(S(=O)(=O)NC(=N)NCCC[C@H]2NC(=O)[C@H](Cc3ccccc3)NC(=O)[C@H](Cc3c[nH]c4ccccc34)NC(=O)[C@@H](C)NC(=O)[C@H](Cc3ccccc3)NC2=O)c(C)c1C` [Example 35, cyclo(-Phe-D-Arg-(Mtr)-Phe-D-Ala-Trp-)] (cyclo(F[dA]WF[dR](Mtr))), with 0.4 µM. In turn, `CC(C)C[C@@H]1NC(=O)[C@@H](Cc2c[nH]c3ccccc23)NC(=O)[C@H](Cc2ccc(O)cc2)NC(=O)[C@@H](CCCCNC(=O)CCCCCc2ccccc2)NC(=O)[C@H](CCCNC(=N)N)NC1=O` [Example 20, cyclo(-Arg-D-Lys (COCH2 CH2 CH2 CH2 CH2 Ph)-Tyr-D-Trp-Leu-)] (cyclo(LR[dK](Hexanoyl(6-Ph))Y[dW])) yielded a 50% inhibitory concentration (IC50) of 0.1 µM. On the same count and under the same terms, then `C[C@H]1NC(=O)[C@H](Cc2ccccc2)NC(=O)[C@@H](CCCNC(=N)N)NC(=O)[C@H](Cc2ccccc2)NC(=O)[C@H](Cc2c[nH]c3ccccc23)NC1=O` [Example 36, cyclo(-Phe-D-Arg-Phe-D-Ala-Trp-)] (cyclo(F[dA]WF[dR])), with 0.9 µM; and `CC(C)C[C@@H]1NC(=O)[C@@H](Cc2c[nH]c3ccccc23)NC(=O)[C@H](CCCCNC(=O)c2ccccc2)NC(=O)[C@@H](CCC(=O)NCCc2ccccc2)NC(=O)[C@H](CCCNC(=N)N)NC1=O` [Example 21, cyclo(-Arg-D-Glu(NHCH2 CH2 Ph)-Lys(COPh)-D-Trp-Leu-)] (cyclo(K(Bz)[dW]LR[dE](NHPhenethyl))), with 0.4 µM.

On to `CC(C)C[C@@H]1NC(=O)[C@@H](Cc2c[nH]c3ccccc23)NC(=O)[C@H](CCCCNC(=O)c2cccc3ccccc23)NC(=O)[C@@H](CCC(=O)NCCc2ccccc2)NC(=O)[C@H](CCCNC(=N)N)NC1=O` [Example 31, cyclo(-Arg-D-Glu(NHCH2 CH2 Ph)-Lys(CONap(1))-D-Trp-Leu-)] (cyclo(K(1Naphthoyl)[dW]LR[dE](NHPhenethyl))), for which the midpoint of inhibition, the IC50, lay at 0.2 µM. This IC50 lies about 2-fold lower than the previous one. The same measure, in the same setting: then `Cc1ccc(S(=O)(=O)NC(=N)NCCC[C@H]2NC(=O)[C@H](c3ccccc3)NC(=O)[C@H](Cc3c[nH]c4ccccc34)NC(=O)[C@@H](C)NC(=O)[C@H](Cc3ccccc3)NC2=O)cc1` [Example 48, cyclo(-Phg-D-Arg(Tos)-Phe-D-Ala-Trp-)] (cyclo(F[dA]W[Phg][dR](Tos))), with 0.07 µM; and `C[C@H]1NC(=O)[C@H](Cc2ccccc2)NC(=O)[C@@H](CCCNC(=N)N)NC(=O)[C@H](c2ccccc2)NC(=O)[C@H](Cc2c[nH]c3ccccc23)NC1=O` [Example 55, cyclo(-Phg-D-Arg-Phe-D-Ala-Trp-)] (cyclo(F[dA]W[Phg][dR])), with 0.2 µM. On to `Cc1ccc(S(=O)(=O)NC(=N)NCCC[C@H]2NC(=O)[C@H](c3cccs3)NC(=O)[C@H](Cc3c[nH]c4ccccc34)NC(=O)[C@@H](C)NC(=O)[C@H](Cc3ccccc3)NC2=O)cc1` [Example 54, cyclo(-Thg(2)-D-Arg(Tos)-Phe-D-Ala-Trp-)] (cyclo(F[dA]W[Gly(2-thienyl)][dR](Tos))), for which the IC50 is 0.3 µM. Same read-out and setting: the result for `CC(C)C[C@@H]1NC(=O)[C@@H](Cc2c[nH]c3ccccc23)NC(=O)[C@H](Cc2ccc(O)cc2)NC(=O)[C@@H]2CCCN2C(=O)[C@H](Cc2c[nH]c3ccccc23)NC(=O)[C@H](CCCNC(=N)N)NC1=O` [Reference Example 1, cyclo(-Tyr-D-Trp-Leu-Arg-Trp-Pro-), reference compound] (cyclo(LRWPY[dW])) reads 10 µM. On the same count and under the same terms, the result for `CC(C)C[C@@H]1NC(=O)[C@@H](Cc2c[nH]c3ccccc23)NC(=O)[C@H](Cc2ccc(O)cc2)NC(=O)[C@@H](CCCCNC(=O)CCCc2ccccc2)NC(=O)[C@H](CCCNC(=N)N)NC1=O` [Example 19, cyclo(-Arg-D-Lys(COCH2 CH2 CH2 Ph)-Tyr-D-Trp-Leu-)] (cyclo(LR[dK](Butanoyl(4-Ph))Y[dW])) reads 1 µM.
